Measured values from patent EP0863891B1, “(METHYLSULFONYL)PHENYL-2-(5H)-FURANONES AS COX-2 INHIBITORS” (Merck Frosst Canada & Co., priority 1995, dated 1997).
Where two headings read alike, the source gives them in different places.

What was measured:
Male Sprague-Dawley rats = assay: Rat paw edema assay (carrageenan-induced); type: in vivo; details: po, 3 hr; for ED50: Rattus norvegicus
Protocol: Male Sprague-Dawley rats (150-200 g) are fasted overnight and are given, po, either vehicle (1% methocel or 5% Tween 80) or a test compound. One hr later, a line is drawn using a permanent marker at the level above the ankle in one hind paw to define the area of the paw to be monitored. The paw volume (V0) is measured using a plethysmometer (Ugo-Basile, Italy) based on the principle of water displacement. The animals are then injected subplantarly with 50 µl of 1% carrageenan solution in saline (PMC Corp, Maine) into the paw using an insulin syringe with a 25-gauge needle (i.e. 500 µg carrageenan per paw). Three hr later, the paw volume (V3) is measured and the increases in paw volume (V3 - VO) are calculated. The animals are sacrificed by CO2 asphyxiation and the absence or presence of stomach lesions scored. Data is compared with the vehicle-control values and percent inhibition calculated. All treatment groups are coded to eliminate observer bias.

COX-2 [1] = molecular target: T1, COX-2 (Homo sapiens, UniProt P35354); assay: Assay of the activity of purified human COX-2 (TMPD chromogenic assay); type: biochemical; design: made in house; host or cells: Sf9 cells
T1 sequence (P35354 18-604): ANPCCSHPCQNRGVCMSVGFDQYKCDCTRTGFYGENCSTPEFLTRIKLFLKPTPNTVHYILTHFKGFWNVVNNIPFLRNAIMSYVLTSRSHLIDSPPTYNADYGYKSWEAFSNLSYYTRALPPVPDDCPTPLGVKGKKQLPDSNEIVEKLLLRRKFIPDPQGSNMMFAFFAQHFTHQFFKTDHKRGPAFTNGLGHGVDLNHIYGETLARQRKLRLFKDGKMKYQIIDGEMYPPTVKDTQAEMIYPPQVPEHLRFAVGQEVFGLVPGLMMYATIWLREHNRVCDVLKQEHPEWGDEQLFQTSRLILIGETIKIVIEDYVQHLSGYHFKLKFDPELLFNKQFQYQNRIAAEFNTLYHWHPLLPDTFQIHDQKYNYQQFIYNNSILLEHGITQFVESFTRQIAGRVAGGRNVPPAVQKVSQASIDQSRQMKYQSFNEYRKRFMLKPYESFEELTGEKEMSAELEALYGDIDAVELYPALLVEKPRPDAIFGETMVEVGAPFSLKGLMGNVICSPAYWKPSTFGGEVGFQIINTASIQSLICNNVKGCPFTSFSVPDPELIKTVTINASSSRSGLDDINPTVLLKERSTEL
Protocol: Assay of the activity of purified human COX-2
The assay mixture (180 µL) contains 100 mM sodium phosphate, pH 6.5, 2 mM genapol X-100, 1 µM hematin, 1 mg/ml gelatin , 80-100 units of purified enzyme (One unit of enzyme is defined as the amount of enzyme required to produce an O.D. change of 0.001/min at 610 nm) and 4 µL of the test compound in DMSO. The mixture is pre-incubated at room temperature (22°C) for 15 minutes prior to initiation of the enzymatic reaction by the addition of 20 µL of a sonicated solution of I mM arachidonic acid (AA) and 1 mM TMPD in assay buffer (without enzyme or hematin). The enzymatic activity is measured by estimation of the initial velocity of TMPD oxidation over the first 36 sec of the reaction. […] IC50 values are derived from 4-parameter least squares non-linear regression analysis of the log-dose vs % inhibition plot.

COX-2 [2] = molecular target: T1, COX-2; assay: Human whole blood assay, COX-2 (LPS-induced PGE2 production); type: cell-based; design: endogenous in cells; host or cells: fresh heparinized human whole blood from volunteers, induced with LPS; details: Table IV; human whole blood, LPS, 24 hours; read-out: COX-2(IC50, µM) HWB
From the text: As well, platelets in whole blood contain a large amount of the COX-1 enzyme. Immediately following blood clotting, platelets are activated through a thrombin-mediated mechanism. […] Therefore, the degree of selectivity by the test compound can be determined by measuring the levels of PGE2 after LPS induction (COX-2) and TxB2 following blood clotting (COX-1) in the same assay.
A. COX-2 (LPS-induced PGE2 production)
Fresh blood is collected in heparinized tubes by venipuncture from both male and female volunteers. The subjects have no apparent inflammatory conditions and have not taken any NSAIDs for at least 7 days prior to blood collection. Plasma is immediately obtained from a 2mL blood aliquot to use as blank (basal levels of PGE2).

CHO [hCOX-2] = molecular target: T2, CHO [hCOX-2] (Homo sapiens, UniProt P35354); assay: Whole cell assay for COX-2 using CHO transfected cell line (PGE2 synthesis); type: cell-based; details: read-out: COX-2(IC50, µM) CHO
T2 construct: expressed in transfected cells; host or cells: CHO cells, stably transfected with pCDNAIII
T2 sequence (P35354 18-604): T1 sequence (P35354 18-604)
Protocol: Chinese hamster ovary (CHO) cell lines which have been stably transfected with an eukaryotic expression vector pCDNAIII containing either the human COX-1 or COX-2 cDNA's are used for the assay. These cell lines are referred to as CHO [hCOX-1] and CHO [hCOX-2], respectively. […] Cells (0.3 x 10^6 cells in 200 µl) are preincubated with 3 µl of the test drug or DMSO vehicle for 15 min at 37°C. […] Cells are then challenged in the presence or absence of drug with the AA/HBSS solution to yield a final concentration of 0.5 µM AA in the CHO[hCOX-1] assay and a final concentration of 10 µM AA in the CHO[hCOX-2] assay. […] The samples are centrifuged at 300 x g at 4°C for 10 min, and an aliquot of the clarified supernatant is appropriately diluted for the determination of PGE2 levels using an enzyme-linked immunoassay for PGE2 (Correlate PGE2 enzyme immunoassay kit, Assay Designs, Inc.). Cyclooxygenase activity in the absence of test compounds is determined as the difference in PGE2 levels of cells challenged with arachidonic acid versus the PGE2 levels in cells mock-challenged with ethanol vehicle. Inhibition of PGE2 synthesis by test compounds is calculated as a percentage of the activity in the presence of drug versus the activity in the positive control samples.
In the assay, inhibition is determined by measuring the amount of prostaglandin E2 (PGE2) synthesized in the presence of arachidonic acid, cyclooxygenase-1 or cyclooxygenase-2 and a putative inhibitor.

[3] = Table IV, purified enzyme, TMPD oxidation, read-out: COX-2(IC50, µM) TMPD
[4] = Table IV, CHO[hCOX-2] cells, 10 µM AA

Row | SMILES | IC50 (COX-2 [2]) | ED50 (Male Sprague-Dawley rats; Table IV) | IC50 (COX-2 [1]; [3]) | IC50 (CHO [hCOX-2]; [4]) | other results
1 | CC1(C)OC(=O)C(Oc2ccc(Cl)cc2)=C1c1ccc(S(C)(=O)=O)cc1 [Example 6, 3-(4-Chlorophenoxy)-5,5-dimethyl-4-(4-(methylsulfonyl)phenyl)-5H-furan-2-one] | – | – | – | – | ED50 (Male Sprague-Dawley rats; Table II): 7.65 mg/kg; IC50 (COX-2 [1]): 2 µM
2 | CC[C@@]1(C)OC(=O)C(Oc2ccc(Cl)cn2)=C1c1ccc(S(C)(=O)=O)cc1 [Example 169, (5R)-3-(5-chloro-2-pyridyloxy)-5-ethyl-5-methyl-4-(4-methylsulfonyl) phenyl-5H-furan-2-one] | < 0.41 µM | 4.6 mg/kg | 4 µM | 0.05 µM | –
3 | C[C@]1(CC(F)(F)F)OC(=O)C(Oc2ccc(F)cc2)=C1c1ccc(S(C)(=O)=O)cc1 [Example 166, (5R)-3-(4-fluorophenoxy)-5-methyl-4-(4-methylsulfonyl)phenyl-5-(2,2,2-trifluoroethyl)-5H-furan-2-one] | 0.28 µM | – | 6.5 µM | 0.05 µM | Rat Paw Edema ED50(mg/kg) (Male Sprague-Dawley rats; Table IV): 4.9 mg/kg
4 | CC1(C)OC(=O)C(Oc2ncccc2F)=C1c1ccc(S(C)(=O)=O)cc1 [Example 167, 3-(3-Fluoro-2-pyridyloxy)-5,5-dimethyl-4-(4-methylsulfonyl) phenyl-5H-furan-2-one] | 0.21 µM | 6.4 mg/kg | – | 0.11 µM | –
5 | C[C@]1(CC(F)(F)F)OC(=O)C(Oc2ccc(Br)cn2)=C1c1ccc(S(C)(=O)=O)cc1 [Example 201, (5R)-3-(5-bromo-2-pyridyloxy)-4-(4-methylsulfonylphenyl)-5-methyl-5-(2,2,2-trifluoroethyl)-5H-furan-2-one] | 0.18 µM | 2.7 mg/kg | 14 µM | 0.07 µM | –
6 | CC(OC1=C(c2ccc(S(C)(=O)=O)cc2)C(C)(C)OC1=O)C1CC1 (stereo not shown) [Example 134] | – | 0.9 mg/kg | – | – | –
7 | CC[C@@]1(C)OC(=O)C(Oc2ccc(F)c(F)c2)=C1c1ccc(S(C)(=O)=O)cc1 [Example 117, (5R)-3-(3,4-Difluorophenoxy)-5-ethyl-5-methyl-4-(4-methylsulfonyl)phenyl-5H-furan-2-one] | – | 1 mg/kg | – | – | –
8 | CC(C)COC1=C(c2ccc(S(C)(=O)=O)cc2)C(C)(C)OC1=O [Example 149, 5,5-dimethyl-3-(isobutoxy)-4-(4-(methylsulfonyl)phenyl)-5H-furan-2-one] | – | 0.9 mg/kg | – | – | –
9 | CC[C@@]1(C)OC(=O)C(Oc2ccc(Br)cc2)=C1c1ccc(S(C)(=O)=O)cc1 [Example 128, (5R)-3-(4-Bromophenoxy)-5-ethyl-5-methyl-4-(4-methylsulfonyl)phenyl-5H-furan-2-one] | < 0.41 µM | 5 mg/kg | 1.7 µM | – | IC50 (CHO [hCOX-2]): 0.01 µM
10 | C[C@]1(CC(F)(F)F)OC(=O)C(Oc2ccc(F)cn2)=C1c1ccc(S(C)(=O)=O)cc1 [Example 164, (5R)-3-(5-Fluoro-2-pyridyloxy)-5-methyl-4-(4-methylsulfonyl) phenyl-5-(2.2.2-trifluoroethyl)-5H-furan-2-one] | – | 2 mg/kg | – | – | –
11 | CC[C@@]1(C)OC(=O)C(Oc2ccc(F)cc2)=C1c1ccc(S(C)(=O)=O)cc1 [Example 163, (5R)-3-(4-Fluorophenoxy)-5-ethyl-5-methyl-4-(4-methylsulfonyl) phenyl-5H-furan-2-one] | – | 0.64 mg/kg | – | – | –
12 | CC[C@@]1(C)OC(=O)C(Oc2ccc(Br)cn2)=C1c1ccc(S(C)(=O)=O)cc1 [Example 202, (5R)-3-(5-bromo-2-pyridyloxy)-4-(4-methylsulfonylphenyl)-5-ethyl-5-methyl-5H-furan-2-one] | – | 5.4 mg/kg | – | – | –
13 | Cc1cc(OC2=C(c3ccc(S(C)(=O)=O)cc3)C(C)(C)OC2=O)ncc1F [Example 122, 3-(5-Fluoro-4-methyl-2-pyridyloxy)-5,5-dimethyl-4-(4-methylsulfonyl)-phenyl-5H-furan-2-one] | 0.38 µM | 1.2 mg/kg | 4.6 µM | 0.15 µM | –
14 | CC[C@@]1(C)OC(=O)C(Oc2ccc(Cl)cc2)=C1c1ccc(S(C)(=O)=O)cc1 [Example 118, (5R)-3-(4-Chlorophenoxy)-5-ethyl-5-methyl-4-(4-methylsulfonyl)phenyl-5H-furan-2-one] | 0.05 µM | 1.4 mg/kg | 2.2 µM | 0.008 µM | –
15 | CC1(C)OC(=O)C(OCC2CC2)=C1c1ccc(S(C)(=O)=O)cc1 [Example 148] | – | 1.2 mg/kg | – | 0.01 µM | –
16 | CC1(C)OC(=O)C(OC2CCC2)=C1c1ccc(S(C)(=O)=O)cc1 [Example 174] | – | 1.6 mg/kg | – | – | –
17 | CC[C@@]1(C)OC(=O)C(OC(C)C)=C1c1ccc(S(C)(=O)=O)cc1 [Example 140, 5(R)-5-ethyl-5-methyl-4-(4-(methylsulfonyl)phenyl)-3-(2-propoxy)-5H-furan-2-one] | 0.54 µM | 4.6 mg/kg | – | 0.12 µM | –
18 | Cc1cc(OC2=C(c3ccc(S(C)(=O)=O)cc3)C(C)(C)OC2=O)ncc1Cl [Example 121, 3-(5-Chloro-4-methyl-2-pyridyloxy)-5,5-dimethyl-4-(4-methylsulfonyl)-phenyl-5H-furan-2-one] | – | 10 mg/kg | – | – | –
19 | CCC(C)OC1=C(c2ccc(S(C)(=O)=O)cc2)C(C)(C)OC1=O (stereo not shown) [Example 112, 5,5-Dimethyl-3-(2-butoxy)-4-(4-methylsulfonylphenyl)-5H-furan-2-one] | – | 8 mg/kg | – | – | –
